According to paper PMC12389591, “Syzygium oleosum (F.Muell.) B.Hyland (Myrtaceae), an Unexplored Australian Species: Anatomical and Micromorphological Study of Leafy Twigs, and Characterization and Biological Activity of Their Essential Oil” (Plants, 2025):
Like-named read-outs stand apart in the source and are kept apart here. Marks after values point to notes of the source that are not given here.

What was measured:
[1] = β-Carotene Bleaching test (BCB); settings: n = 3; for BCB IC50 (95% confidence limits): pure compounds tested at the concentration naturally present within the EO, n.r. = IC50 not reached
Experimental: (§1) The antioxidant and anti-inflammatory properties of S. oleosum and its major bioactive compounds were evaluated using different in vitro assays based on different mechanisms and reaction environments according to Smeriglio et al.. Results were expressed as the concentration required to inhibit 50% of the oxidative or inflammatory activity (IC50, µg/mL), with corresponding 95% confidence limits (C.L.) calculated using the Litchfield and Wilcoxon method with PHARM/PCS software (version 4; Consulting, Wynnewood, PA, USA).
In brief, 200 µL of EO (0.094–1.5 mg/mL), its main bioactive compounds (0.0289–0.4619 mg/mL, 0.0251–0.4019 mg/mL, 0.010–0.1604 mg/mL, and 0.0092–0.1479 mg/mL for terpinolene, β-pinene, α-pinene, and γ-terpinene), butylated hydroxytoluene (BHT, 1 mg/mL), or blank (0.1% DMSO) was added to 5 mL of β-carotene emulsion, prepared from 250 µL of β-carotene in ethyl acetate (1 mg/mL), 4 µL linoleic acid, and 40 µL Tween-40. An emulsion lacking β-carotene served as negative control. The mixtures were incubated at 50 °C for 2 h, and absorbance at 470 nm was measured at 20 min intervals using the same instrument as in Section TEAC Assay.

[2] = Iron-Chelating Activity assay (ICA); settings: n = 3; for ICA IC50 (95% confidence limits): pure compounds tested at the concentration naturally present within the EO, n.r. = IC50 not reached
Experimental: (§2) The antioxidant and anti-inflammatory properties of S. oleosum and its major bioactive compounds were evaluated using different in vitro assays based on different mechanisms and reaction environments according to Smeriglio et al..
After 5 min at RT, 50 µL of ferrozine solution (5 mM) and deionized water were added to bring the total volume to 1.5 mL.

[3] = biological target: T1, trypsin (Bos taurus, UniProt P00760); assay: Inhibition of protease activity (PIA); assay type: biochemical; settings: pure compounds tested at the concentration naturally present within the EO, n = 3, n.r. = IC50 not reached
T1 sequence (P00760 24-246): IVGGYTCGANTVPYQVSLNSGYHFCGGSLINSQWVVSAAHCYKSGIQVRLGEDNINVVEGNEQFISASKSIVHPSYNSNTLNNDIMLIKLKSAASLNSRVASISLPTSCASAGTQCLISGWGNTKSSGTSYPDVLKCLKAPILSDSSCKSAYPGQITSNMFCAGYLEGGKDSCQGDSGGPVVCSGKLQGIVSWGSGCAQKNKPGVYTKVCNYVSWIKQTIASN
Experimental: as §2
After a 20 min incubation at 37 °C, the reaction was halted with 400 µL of 2 M perchloric acid, followed by centrifugation at 3500 × g for 10 min.

[4] = Ferric Reducing Antioxidant Power assay (FRAP); settings: n = 3; for FRAP IC50 (95% confidence limits): pure compounds tested at the concentration naturally present within the EO, n.r. = IC50 not reached
Experimental: as §1
In this assay, 10 µL of EO (ranging from 0.313 to 5 mg/mL), its main bioactive compounds (0.096–1.54 mg/mL, 0.084–1.34 mg/mL, 0.033–0.535 mg/mL, and 0.031–0.493 mg/mL for terpinolene, β-pinene, α-pinene, and γ-terpinene) or Trolox (1.25–10 µg/mL) was mixed with 200 µL of FRAP reagent, pre-incubated at 37 °C. The reagent consisted of 10 mM 2,4,6-Tris (2-pyridyl)-s-triazine (TPTZ) in 40 mM HCl, 20 mM FeCl3·6H2O, and 300 mM acetate buffer (pH 3.6). The mixture was incubated for 4 min at RT in the dark before measuring absorbance at 593 nm with the same microplate reader used in Section TEAC Assay.

[5] = Trolox Equivalent Antioxidant Capacity assay (TEAC); settings: n = 3; for TEAC IC50 (95% confidence limits): pure compounds tested at the concentration naturally present within the EO, n.r. = IC50 not reached
Experimental: as §1
To generate the 2,2′-azino-bis (3-ethylbenzothiazoline-6-sulfonic acid) (ABTS) radical cation solution, ABTS^+ (1.7 mM) was incubated with potassium persulfate (4.3 mM) in a 1:5 (v/v) ratio in the dark at room temperature (RT) for 12 h. The resulting solution was diluted to achieve an absorbance of 0.7 ± 0.02 at 734 nm. For the assay, 10 µL of either EO (ranging from 0.313 to 5 mg/mL), its main bioactive compounds (0.096–1.54 mg/mL, 0.084–1.34 mg/mL, 0.033–0.535 mg/mL, and 0.031–0.493 mg/mL for terpinolene, β-pinene, α-pinene, and γ-terpinene) or Trolox (0.625–10 µg/mL) was added to 200 µL of the ABTS solution and incubated at RT for 6 min. The absorbance at 734 nm was measured using a Multiskan™ GO UV-Vis microplate reader (Thermo Scientific, Waltham, MA, USA).

[6] = biological target: BSA (Bos taurus, UniProt P02769); assay: Inhibition of protein denaturation (ADA); assay type: biochemical; settings: for ADA IC50 (95% confidence limits): pure compounds tested at the concentration naturally present within the EO, n = 3, n.r. = IC50 not reached
[7] = Oxygen Radical Absorbance Capacity assay (ORAC); settings: n = 3; for ORAC IC50 (95% confidence limits): pure compounds tested at the concentration naturally present within the EO, n.r. = IC50 not reached
Experimental: as §1
ORAC activity was evaluated by combining 20 µL EO (ranging from 0.003 to 0.05 mg/mL), its main bioactive compounds (0.0010–0.0154 mg/mL, 0.0008–0.0134 mg/mL, 0.0003–0.0053 mg/mL, and […] for terpinolene, β-pinene, α-pinene, and γ-terpinene) or Trolox (0.25–2 µg/mL) with 120 µL of fluorescein solution (117 nM). After a 15-min pre-incubation at 37 °C, 60 µL of freshly prepared 2,2′-azobis (2-amidinopropane) dihydrochloride (AAPH) solution (40 mM) was added to initiate peroxyl radical formation. Fluorescence decay was monitored every 30 s for 90 min using excitation at 485 nm and emission at 520 nm on a FLUOstar Omega microplate reader (BMG LABTECH, Ortenberg, Germany).

[8] = biological target: butyrylcholinesterase (BChE) (Equus caballus, UniProt P81908); assay: Cholinesterase inhibition, BChE; assay type: biochemical; settings: pure compounds tested at the concentration naturally present in the EO, three experiments, n.r. = IC50 not reached
Experimental: (§3) The cholinesterase inhibitory activity was evaluated according to the method described by Zheng and co-workers.

[9] = biological target: acetylcholinesterase (AChE) (Electrophorus electricus, UniProt O42275); settings: pure compounds tested at the concentration naturally present in the EO, three experiments, n.r. = IC50 not reached
Experimental: as §3

BSA, sequence (P02769 25-607): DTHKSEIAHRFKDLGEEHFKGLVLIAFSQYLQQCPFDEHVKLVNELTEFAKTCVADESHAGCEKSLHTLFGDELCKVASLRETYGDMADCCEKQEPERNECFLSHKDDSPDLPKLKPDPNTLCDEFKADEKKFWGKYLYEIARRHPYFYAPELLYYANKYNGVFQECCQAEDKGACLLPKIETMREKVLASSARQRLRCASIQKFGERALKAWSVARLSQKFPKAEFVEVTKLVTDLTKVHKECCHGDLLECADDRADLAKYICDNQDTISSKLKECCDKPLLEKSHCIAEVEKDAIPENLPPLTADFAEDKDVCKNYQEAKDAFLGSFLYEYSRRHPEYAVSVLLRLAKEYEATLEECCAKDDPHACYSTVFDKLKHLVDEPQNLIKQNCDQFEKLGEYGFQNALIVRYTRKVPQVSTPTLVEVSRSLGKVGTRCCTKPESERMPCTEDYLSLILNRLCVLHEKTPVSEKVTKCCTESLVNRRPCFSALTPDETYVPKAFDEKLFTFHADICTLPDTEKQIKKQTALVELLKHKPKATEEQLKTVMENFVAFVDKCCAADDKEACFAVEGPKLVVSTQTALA
butyrylcholinesterase (BChE), sequence (P81908 whole entry): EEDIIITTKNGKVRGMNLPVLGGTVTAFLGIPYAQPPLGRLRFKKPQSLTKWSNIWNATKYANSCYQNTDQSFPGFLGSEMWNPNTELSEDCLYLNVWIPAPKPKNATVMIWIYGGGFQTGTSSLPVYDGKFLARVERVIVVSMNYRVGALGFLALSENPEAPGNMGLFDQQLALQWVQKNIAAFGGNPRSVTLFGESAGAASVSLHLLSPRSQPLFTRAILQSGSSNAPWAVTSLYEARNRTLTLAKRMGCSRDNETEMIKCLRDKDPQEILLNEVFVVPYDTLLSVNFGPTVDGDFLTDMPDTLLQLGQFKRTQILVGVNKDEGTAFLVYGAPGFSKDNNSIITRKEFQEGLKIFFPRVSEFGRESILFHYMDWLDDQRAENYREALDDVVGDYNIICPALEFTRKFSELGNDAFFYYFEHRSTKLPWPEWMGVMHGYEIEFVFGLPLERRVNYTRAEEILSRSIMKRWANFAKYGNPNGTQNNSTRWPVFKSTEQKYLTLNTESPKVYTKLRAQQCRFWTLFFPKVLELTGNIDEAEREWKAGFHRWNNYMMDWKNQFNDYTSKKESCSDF
acetylcholinesterase (AChE), sequence (O42275 24-633): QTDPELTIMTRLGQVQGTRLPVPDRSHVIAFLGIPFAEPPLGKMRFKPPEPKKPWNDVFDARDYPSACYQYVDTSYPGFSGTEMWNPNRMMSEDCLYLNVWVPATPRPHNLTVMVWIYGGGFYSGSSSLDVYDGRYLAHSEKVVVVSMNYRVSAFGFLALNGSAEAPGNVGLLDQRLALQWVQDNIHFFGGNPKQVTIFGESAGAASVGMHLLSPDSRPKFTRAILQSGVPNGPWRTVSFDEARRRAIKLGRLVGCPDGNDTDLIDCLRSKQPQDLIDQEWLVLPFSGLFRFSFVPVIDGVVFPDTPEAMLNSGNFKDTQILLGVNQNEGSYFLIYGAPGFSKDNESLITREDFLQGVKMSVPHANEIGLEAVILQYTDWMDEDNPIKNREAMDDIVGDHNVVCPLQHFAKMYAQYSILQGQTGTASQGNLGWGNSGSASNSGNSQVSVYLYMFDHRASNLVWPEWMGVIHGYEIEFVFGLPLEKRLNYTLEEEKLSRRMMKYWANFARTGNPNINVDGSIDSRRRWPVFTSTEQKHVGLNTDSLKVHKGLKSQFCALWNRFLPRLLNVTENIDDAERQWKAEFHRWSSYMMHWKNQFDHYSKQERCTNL

Row | SMILES | PIA IC50 (95% confidence limits) [3] | FRAP IC50 (95% confidence limits) [4] | TEAC IC50 (95% confidence limits) [5] | BCB IC50 (95% confidence limits) [1] | IC50 [6] [µM] | ICA IC50 (95% confidence limits) [2] | ORAC IC50 (95% confidence limits) [7] | BChE IC50 ± standard deviation [8] | other results
1 | Cc1cc(C(C)(C)C)c(O)c(C(C)(C)C)c1 [BHT, butylated hydroxytoluene] |  |  |  |  |  |  |  |  | BCB IC50 (95% confidence limits), reference standard ([1]; RS BHT): 0.35 (0.17–80.58) *** µg/mL
2 | O=C(O)CN(CCN(CC(=O)O)CC(=O)O)CC(=O)O [EDTA] |  |  |  |  |  |  |  |  | ICA IC50 (95% confidence limits), reference standard ([2]; RS EDTA): 5.72 (2.32–87.13) *** µg/mL
3 | CC1=CCC(=C(C)C)CC1 [Terpinolene] | did not reach the IC50 threshold | n.r. | n.r. | 0.21 (0.10–0.45) mg/mL | 2350 | n.r. | 0.01 (0.00–0.04) mg/mL |  | FRAP IC50 (95% confidence limits) ([4]; listed as terpinolene): neither compound reached 50% inhibition; TEAC IC50 (95% confidence limits) ([5]; listed as terpinolene): neither compound reached 50% inhibition; ICA IC50 (95% confidence limits) ([2]; listed as terpinolene): no appreciable activity
4 | Cc1c(C)c2c(c(C)c1O)CCC(C)(C(=O)O)O2 (centres unmarked) [trolox] |  |  |  |  |  |  |  |  | FRAP IC50 (95% confidence limits), reference standard ([4]; RS trolox): 3.72 (1.60–8.66) *** µg/mL; TEAC IC50 (95% confidence limits), reference standard ([5]; RS trolox): 3.78 (1.48–9.67) *** µg/mL; ORAC IC50 (95% confidence limits), reference standard ([7]; RS trolox): 0.68 (0.22–82.17) *** µg/mL
5 | CC1=CCC2CC1C2(C)C (stereo not drawn) [α-Pinene] |  | n.r. | n.r. ^b | inactive and n.r. |  |  | n.r. | n.r. | BChE IC50 ± standard deviation ([8]; listed as α-pinene): failed to reach the IC50 threshold; ADA IC50 (95% confidence limits) [6]: n.r.; ADA IC50 (95% confidence limits) ([6]; listed as α-pinene): did not reach 50% inhibition
6 | C=C1CCC2CC1C2(C)C (stereo not drawn) [β-Pinene] | did not reach the IC50 threshold and n.r. | neither compound reached 50% inhibition and n.r. | neither compound reached 50% inhibition and n.r. | n.r. | 2640 | 0.03 (0.01–0.13) mg/mL | n.r. | n.r. | AChE IC50 ± standard deviation [9]: n.r.; AChE IC50 ± standard deviation ([9]; listed as β-pinene): did not achieve 50% inhibition; BChE IC50 ± standard deviation ([8]; listed as β-pinene): failed to reach the IC50 threshold; BCB IC50 (95% confidence limits) ([1]; listed as β-pinene): inactive
7 | CC1=CCC(C(C)C)=CC1 [γ-Terpinene] | n.r. | n.r. | n.r. | 0.02 (0.02–0.03) mg/mL | 807 | no appreciable activity and n.r. | n.r. | n.r. | PIA IC50 (95% confidence limits) ([3]; listed as γ-terpinene): did not reach the IC50 threshold; AChE IC50 ± standard deviation [9]: n.r.; AChE IC50 ± standard deviation ([9]; listed as γ-terpinene): did not achieve 50% inhibition; BChE IC50 ± standard deviation ([8]; listed as γ-terpinene): failed to reach the IC50 threshold
